These results are taken from patent US9156811B2 (priority 2008, dated 2015).

For the assay, the system named is Trypanosome (T. brucei brucei). The experiment in a line: In-vitro antitrypanosomal efficacy assay (cell growth, resazurin). Format: cell-based. To be noted: T. brucei cell growth. Background: Resazurin is reduced to fluorescent resorufin, in cell work by metabolically active cells.
Protocol: To column 12, 200 μl media was added to provide a no cells control. Plates were then incubated at 37° C. in an atmosphere of 5% CO2 for 69 hours, before the addition of 20 μl of 500 μM rezasurin solution, and a further incubation period of 4 hours. […] Concentration effect curves were fitted using non-linear regression using XLFit 4.2 and EC50 values determined.
As for `Cc1nn(C)c(C)c1N[S+](=O)([O-])c1ccc(N2CCC(NC3CCN(Cc4ccccc4)C3)CC2)nc1` (stereo not shown) [DDD86473], the “ED50 (μM) T. brucei” value is greater than 1 µM.

As for `Cn1cc(N[S+](=O)([O-])c2ccc(-c3ccnc(N4CCNCC4)c3)cc2)cn1` [DDD86474, N-(1-Methyl-1H-pyrazol-4-yl)-4-(2-piperazin-1-yl-pyridin-4-yl)-benzenesulfonamide], the “ED50 (μM) T. brucei” value was determined as 0.65 µM.

As for `Cc1nn(C)cc1N[S+](=O)([O-])c1c(Cl)cc(-c2ccnc(N3CCNCC3)c2)cc1Cl` [DDD86475, 2,6-Dichloro-N-(1,3-dimethyl-1H-pyrazol-4-yl)-4-(2-piperazin-1-yl-pyridin-4-yl)-benzenesulfonamide], the “ED50 (μM) T. brucei” value is 0.003 µM.

On to `Cc1nn(C)c(C)c1N[S+](=O)([O-])c1ccc(N2CCC(N3CCCCC3)C2)nc1` (stereo not shown) [DDD86477], for which the “ED50 (μM) T. brucei” value is greater than 1 µM.

With `Cn1cc(N[S+](=O)([O-])c2c(Cl)cc(-c3ccnc(N4CCNCC4)c3)cc2Cl)cn1` [DDD86478, 2,6-Dichloro-N-(1-methyl-1H-pyrazol-4-yl)-4-(2-piperazin-1-yl-pyridin-4-yl)-benzenesulfonamide], the “ED50 (μM) T. brucei” value was determined as 0.24 µM.

On to `Cc1nn(C)c(C)c1N[S+](=O)([O-])c1ccc(-c2ccnc(N3CCNC(C)C3)c2)cc1` (stereo not shown) [DDD87748], for which the “ED50 (μM) T. brucei” value is 0.001 µM.

Take `Cc1nn(C)c(C)c1N[S+](=O)([O-])c1ccc(-c2ccnc(N3CCCCC3)c2)cc1` [DDD87749, 4-(3,4,5,6-Tetrahydro-2H-[1,2′]bipyridinyl-4′-yl)-N-(1,3,5-trimethyl-1H-pyrazol-4-yl)-benzenesulfonamide]: the “ED50 (μM) T. brucei” value came out at 1.28 µM.

Turning to `Cc1nn(C)c(C)c1N[S+](=O)([O-])c1ccc(-c2cccc(CCO)c2)cc1` [DDD87751, 3′-(2-Hydroxy-ethyl)-biphenyl-4-sulfonic acid (1,3,5-trimethyl-1H-pyrazol-4-yl)-amide], the “ED50 (μM) T. brucei” value is greater than 1 µM.

With `Cc1nn(C)c(C)c1N[S+](=O)([O-])c1ccc(-c2cccc(CN3CCNC(c4ccccc4)C3)c2)cc1` (stereo not shown) [DDD87754, 3′-(3-Phenyl-piperazin-1-ylmethyl)-biphenyl-4-sulfonic acid (1,3,5-trimethyl-1H-pyrazol-4-yl)-amide], the “ED50 (μM) T. brucei” value came out at 1.6 µM.

On to `Cc1nn(C)c(C)c1N[S+](=O)([O-])c1ccc(N2CCCC(N3CCNCC3)C2)nc1` (stereo not shown) [DDD87757], for which the “ED50 (μM) T. brucei” value is 0.003 µM.

With `CCN(CC)Cc1ccccc1-c1ccc([S+](=O)([O-])Nc2c(C)nn(C)c2C)cc1` [DDD87758, 2′-Diethylaminomethyl-biphenyl-4-sulfonic acid (1,3,5-trimethyl-1H-pyrazol-4-yl)-amide], the “ED50 (μM) T. brucei” value was greater than 1 µM.

In the case of `Cc1nn(C)c(C)c1NS(=O)(=O)c1ccc(-c2ccnc(N3CC(C)NC(C)C3)c2)cc1` (stereo not shown) [DDD87761, 4-[2-(3,5-Dimethyl-piperazin-1-yl)-pyridin-4-yl]-N-(1,3,5-trimethyl-1H-pyrazol-4-yl)-benzenesulfonamide], the “ED50 (μM) T. brucei” value amounted to 0.02 µM.

As to `Cc1nn(C)c(C)c1N[S+](=O)([O-])c1ccc(-c2ccccc2CN2CCN(C)CC2)cc1` [DDD87764, 2′-(4-Methyl-piperazin-1-ylmethyl)-biphenyl-4-sulfonic acid (1,3,5-trimethyl-1H-pyrazol-4-yl)-amide], the “ED50 (μM) T. brucei” value is greater than 1 µM.

In the case of `Cc1nn(C)c(C)c1N[S+](=O)([O-])c1ccc(-c2cccc(CNCc3ccccc3)c2)cc1` [DDD87765, 3′-(Benzylamino-methyl)-biphenyl-4-sulfonic acid (1,3,5-trimethyl-1H-pyrazol-4-yl)-amide], the “ED50 (μM) T. brucei” value was greater than 1 µM.

For the molecule `Cc1nn(C)c(C)c1N(C)[S+](=O)([O-])c1ccc(Br)cc1` [DDD87766, 4-Bromo-N-methyl-N-(1,3,5-trimethyl-1H-pyrazol-4-yl)-benzenesulfonamide], the “ED50 (μM) T. brucei” value was greater than 1 µM.

As to `Cc1nn(C)c(C)c1N[S+](=O)([O-])c1ccc(-c2cccc(C3CCNCC3)c2)cc1` [DDD87768, 3′-Piperidin-4-yl-biphenyl-4-sulfonic acid (1,3,5-trimethyl-1H-pyrazol-4-yl)-amide], the “ED50 (μM) T. brucei” value came out at 0.06 µM.

For `Cc1nn(C)c(C)c1N[S+](=O)([O-])c1c(Cl)cc(CCCN2CCN(C)CC2)cc1Cl` [DDD87769, 2,6-Dichloro-4-[3-(4-methyl-piperazin-1-yl)-propyl]-N-(1,3,5-trimethyl-1H-pyrazol-4-yl)-benzenesulfonamide], the “ED50 (μM) T. brucei” value is 0.008 µM.

In the case of `Cc1ncccc1N[S+](=O)([O-])c1ccc(-c2ccnc(N3CCNCC3)c2)cc1` [DDD87994, N-(2-Methyl-pyridin-3-yl)-4-(2-piperazin-1-yl-pyridin-4-yl)-benzenesulfonamide], the “ED50 (μM) T. brucei” value worked out at 0.11 µM.

For `Cc1c(N[S+](=O)([O-])c2ccc(-c3ccnc(N4CCNCC4)c3)cc2)cnn1C` [DDD87995, N-(1,5-Dimethyl-1H-pyrazol-4-yl)-4-(2-piperazin-1-yl-pyridin-4-yl)-benzenesulfonamide], the “ED50 (μM) T. brucei” value was determined as 0.02 µM.

As for `Cc1nn(C)c(C)c1N[S+](=O)([O-])c1ccc(C#CCN2CCN(C)CC2)cc1` [DDD87999, 4-[3-(4-Methyl-piperazin-1-yl)-prop-1-ynyl]-N-(1,3,5-trimethyl-1H-pyrazol-4-yl)-benzenesulfonamide], the “ED50 (μM) T. brucei” value was greater than 1 µM.

Turning to `Cc1nn(C)c(C)c1N[S+](=O)([O-])c1ccc(NCCC2CCN(C)CC2)nc1` [DDD88000, 6-[2-(1-Methyl-piperidin-4-yl)-ethylamino]-pyridine-3-sulfonic acid (1,3,5-trimethyl-1H-pyrazol-4-yl)-amide], the “ED50 (μM) T. brucei” value is 0.77 µM.

Turning to `Cc1ncccc1N[S+](=O)([O-])c1ccc(-c2cccc(C3CCNCC3)c2)cc1` [DDD88003, 3′-Piperidin-4-yl-biphenyl-4-sulfonic acid (2-methyl-pyridin-3-yl)-amide], the “ED50 (μM) T. brucei” value is 1.9 µM.

As to `Cc1nn(C)c(C)c1N[S+](=O)([O-])c1cc(F)c(Br)cc1F` [DDD88004, 4-Bromo-3,6-difluoro-N-(1,3,5-trimethyl-1H-pyrazol-4-yl)-benzenesulfonamide], the “ED50 (μM) T. brucei” value was greater than 1 µM.

For `Cc1nn(C)c(C)c1N[S+](=O)([O-])c1ccc(-c2cccc(CN(C)C)c2)cc1` [DDD88005, 3′-Dimethylaminomethyl-biphenyl-4-sulfonic acid (1,3,5-trimethyl-1H-pyrazol-4-yl)-amide], the “ED50 (μM) T. brucei” value turned out to be 0.1 µM.

For the molecule `Cc1nn(C)c(C)c1N[S+](=O)([O-])c1c(Cl)cc(-c2cccc(CN3CCCC3)c2)cc1Cl` [DDD88009, 3,5-Dichloro-3′-pyrrolidin-1-ylmethyl-biphenyl-4-sulfonic acid (1,3,5-trimethyl-1H-pyrazol-4-yl)-amide], the “ED50 (μM) T. brucei” value worked out at 0.10 µM.

Take `CCCOc1cc(CN2CCN(C)CC2)cc(-c2ccc([S+](=O)([O-])Nc3c(C)nn(C)c3C)cc2)c1` [DDD88187, 5′-(4-Methyl-piperazin-1-ylmethyl)-3′-propoxy-biphenyl-4-sulfonic acid (1,3,5-trimethyl-1H-pyrazol-4-yl)-amide]: the “ED50 (μM) T. brucei” value amounted to 2.15 µM.

On to `Cc1noc(C)c1N[S+](=O)([O-])c1ccc(-c2cccc(C3CCNCC3)c2)cc1` [DDD88189, 3′-Piperidin-4-yl-biphenyl-4-sulfonic acid (3,5-dimethyl-isoxazol-4-yl)-amide], for which the “ED50 (μM) T. brucei” value is greater than 1 µM.

Take `Cc1nn(C)c(C)c1N[S+](=O)([O-])c1ccc(CCCN2CCN(C)CC2)cc1` [DDD88191, 4-[3-(4-Methyl-piperazin-1-yl)-propyl]-N-(1,3,5-trimethyl-1H-pyrazol-4-yl)-benzenesulfonamide]: the “ED50 (μM) T. brucei” value was found to be 0.67 µM.

For the molecule `Cc1nn(C)c(C)c1N(C)[S+](=O)([O-])c1c(Cl)cc(-c2ccnc(N3CCNCC3)c2)cc1Cl` [DDD88193, 2,6-Dichloro-N-methyl-4-(2-piperazin-1-yl-pyridin-4-yl)-N-(1,3,5-trimethyl-1H-pyrazol-4-yl)-benzenesulfonamide], the “ED50 (μM) T. brucei” value is 0.005 µM.

With `Cc1nn(C)c(C)c1N[S+](=O)([O-])c1ccc(-c2cc(CN3CCN(C)CC3)cc(OC(C)C)c2)cc1` [DDD88194, 3′-Isopropoxy-5′-(4-methyl-piperazin-1-ylmethyl)-biphenyl-4-sulfonic acid (1,3,5-trimethyl-1H-pyrazol-4-yl)-amide], the “ED50 (μM) T. brucei” value worked out at 2.0 µM.

For `Cc1nn(C)c(C)c1N(C)[S+](=O)([O-])c1ccc(-c2cccc(CN3CCN(C)CC3)c2)cc1` [DDD88196, 3′-(4-Methyl-piperazin-1-ylmethyl)-biphenyl-4-sulfonic acid methyl-(1,3,5-trimethyl-1H-pyrazol-4-yl)-amide], the “ED50 (μM) T. brucei” value turned out to be 0.05 µM.

On to `Cc1nn(C)c(CC(C)C)c1N[S+](=O)([O-])c1c(Cl)cc(Br)cc1Cl` [DDD88197, 4-Bromo-2,6-dichloro-N-(5-isobutyl-1,3-dimethyl-1H-pyrazol-4-yl)-benzenesulfonamide], for which the “ED50 (μM) T. brucei” value was determined as 45.9 µM.

Consider `Cc1c(N[S+](=O)([O-])c2c(Cl)cc(Br)cc2Cl)c(CC(C)C)nn1C` [DDD88198, 4-Bromo-2,6-dichloro-N-(3-isobutyl-1,5-dimethyl-1H-pyrazol-4-yl)-benzenesulfonamide], for which the “ED50 (μM) T. brucei” value came to 2.3 µM.

Consider `Cc1nn(C)c(C)c1N[S+](=O)([O-])c1c(F)cc(Br)cc1F` [DDD88317], for which the “ED50 (μM) T. brucei” value was greater than 10 µM.

With `Cc1nn(C)c(C)c1N[S+](=O)([O-])c1ccc2nc(Cl)ccc2c1` [DDD88533], the “ED50 (μM) T. brucei” value is greater than 10 µM.

For `Cc1nn(C)c(C)c1N[S+](=O)([O-])c1ccc(-c2ccnc(N3CCNC(C(C)C)C3)c2)cc1` (stereo not shown) [DDD88549], the “ED50 (μM) T. brucei” value is 0.11 µM.

Turning to `Cc1nn(C)c(C)c1N[S+](=O)([O-])c1c(Cl)cc(CCCC2CCN(C)CC2)cc1Cl` [DDD88557], the “ED50 (μM) T. brucei” value stood at 0.002 µM.

In the case of `Cc1nn(C)c(C)c1N[S+](=O)([O-])c1ccc(CCCC2CCN(C)CC2)cc1` [DDD88559], the “ED50 (μM) T. brucei” value is 0.038 µM.

For the molecule `Cc1nn(C)c(C)c1N[S+](=O)([O-])c1ccc(CCCN2CCNCC2)cc1` [DDD88580], the “ED50 (μM) T. brucei” value came to 1.13 µM.

In the case of `CCN(CC)Cc1cccc(-c2cc(Cl)c([S+](=O)([O-])N(C)c3c(C)nn(C)c3C)c(Cl)c2)c1` [DDD88641], the “ED50 (μM) T. brucei” value was 0.31 µM.
